Assay results reported in patent publication US5821240A, “Pyrimido[5,4]-dipyrimidines, pharmaceuticals containing them, their use and processes for the preparation thereof” (Dr. Karl Thomae GmbH, priority 1996, dated 1998).
pIC50: −log10 of the molar value.

What was measured:
[1] = tested on: F/L-HERc cells expressing human EGF-R; experiment: Inhibition of EGF-dependent proliferation of F/L-HERc cells; assay type: cell-based, murine cell line; human EGF-R; settings: EGF 20 ng/ml, 37° C., 48 hours
Description: (§1) In this case, an interleukin-3 (IL-3)-dependent cell line of murine origin was used and was genetically modified in such a way that it expresses functional human EGF-R. Proliferation of these cells, which are called F/L-HERc, can therefore be stimulated either by murine IL-3 or by EGF (see von Ruden, T. et al. in EMBO J. 7, 2749-2756 (1988) and Pierce, J. H. et al. in Science 239, […] (1988)).
(§2) The starting material for the F/L-HERc cells was the cell line FDC-P1 whose preparation has been described by Dexter, T. M. et al. in J. Exp. Med. 152, 1036-1047 (1980). However, it is also possible as an alternative to use other growth factor-dependent cells (see, for example, Pierce, J. H. et al. in Science 239, 628-631 (1988), Shibuya, H. et al. in Cell 70, 57-67 (1992) and Alexander, W. S. et al. in EMBO J. 10, 3683-3691 (1991)). Recombinant retroviruses as described in von Ruden, T. et al., EMBO J. 7, 2749-2756 (1988) Were used for expression of the human EGF-R cDNA (see Ullrich, A. et al. in Nature 309, 418-425 (1984)), with the difference that the retroviral vector LXSN (see Miller, A. D. et al. in BioTechniques 7, 980-990 (1989)) was employed for expression of the EGF-R cDNA, and the line GP+E86 (see Markowitz, D. et al. in J. Virol. 62, 1120-1124 (1988)) was used as packaging cell.
(§3) F/L-HERc cells were cultivated in RPMI/1640 medium (BioWhittaker), supplemented with 10% fetal calf serum (FCS, Boehringer Mannheim), 2 mM glutamine (BioWhittaker), standard antibiotics and 20 ng/ml human EGF (Promega), at 37° C. and 5% CO2. To investigate the inhibitor activity of the compounds according to the invention, 1.5×10^4 cells were cultivated in the above medium (200 μl) per well in triplicates in 96-well plates, stimulating proliferation of the cells either with EGF (20 ng/ml) or with murine IL-3. The source used for IL-3 was culture supernatants from the cell line X63/0 mIL-3 (see Karasuyama, H. et al. in Eur. J. Immunol. 18, 97-104 (1988)). The compounds according to the invention were dissolved in 100% dimethyl sulphoxide (DMSO) and added in various dilutions to the cultures, with the maximum DMSO concentration being 1%. The cultures were incubated at 37° C. for 48 hours.
(§4) To determine the inhibitory activity of the compounds according to the invention, the relative cell count was measured in O.D. units using the Cell Titre 96™ AQueous Non-Radioactive Cell Proliferation Assay (Promega). The relative cell count was calculated as a percent of the control (F/L-HERc cells without inhibitor), and the concentration of active substance which inhibits the proliferation of the cells by 50% (IC50) was inferred.

F/L-HERc cells = experiment: Inhibition of IL-3-dependent proliferation of F/L-HERc cells; assay type: cell-based; settings: Mus musculus, murine IL-3, 37° C., 48 hours
Description: as §1, §2, §3, §4

[2] = tested on: human tumour cell line KB; experiment: Inhibition of EGF/TGF-alpha-stimulated KB cell proliferation ([3H]-thymidine incorporation); assay type: cell-based; settings: TGF-alpha 10 ng/ml or EGF 20 ng/ml, serum-free, 60 hours then [3H]-thymidine 16-18 h
Description: KB cells (purchased from ATCC) were passaged in DMEM (BioWhittaker) in the presence of 10% FCS (Boehringer Mannheim), 50 μM beta-mercaptoethanol and standard antibiotics. The EGF-induced DNA synthesis was determined by measuring the incorporation of radioactively labelled thymidine as indicator of EGF/TGF-alpha-stimulated cell proliferation. To do this, the cells were washed twice and 1500 cells per well were plated out in a 96-well plate in 200 μl of IMDM (BioWhittaker) without serum in the presence of 50 μM beta-mercaptoethanol, standard antibiotics, TGF-alpha [10 ng/ml] or EGF [20 ng/ml] and of various concentrations of the substances according to the invention (triplicates, maximum DMSO concentration 1%, see proliferation t t with F/L-HERc cells). After 60 hours, [^3 H]-thymidine (0.1 μCi in 10 μl) was added for about 16-18 h.

pIC50 [2] | Compound | pIC50 [1] | pIC50 (F/L-HERc cells)
6.00 to 7.00 | NCC1CCN(c2ncc3ncnc(Nc4ccc(F)c(Cl)c4)c3n2)CC1 [1(7), 4-[(3-Chloro-4-fluorophenyl)amino]-6-[4-(aminomethyl)-1-piperidinyl]pyrimido[5,4-d]pyrimidine] | 8.10 | < 6.00
6.00 to 7.00 | COC(=O)N1CCC(Nc2ncc3ncnc(Nc4ccc(F)c(Cl)c4)c3n2)CC1 [1(8), 4-[(3-Chloro-4-fluorophenyl)amino]-6-[1-methoxycarbonyl-4-piperidinylamino]pyrimido[5,4-d]pyrimidine] | 8.52 | < 5.00
6.00 to 7.00 | Nc1c(Cl)cc(Nc2ncnc3cnc(N[C@H]4CC[C@H](C(=O)O)CC4)nc23)cc1Cl [1(16), 4-[(4-Amino-3,5-dichlorophenyl)amino]-6-[(trans-4-carboxycyclohexyl)amino]pyrimido[5,4-d]pyrimidine] | 7.70 | < 6.00
6.00 to 7.00 | Nc1c(Cl)cc(Nc2ncnc3cnc(N[C@H]4CC[C@H](C(=O)N5CCOCC5)CC4)nc23)cc1Cl [1(17), 4-[(4-Amino-3,5-dichlorophenyl)amino]-6-[trans-4-(morpholinocarbonyl)cyclohexylamino]pyrimido[5,4-d]pyrimidine] | 9.00 | < 6.00
6.00 to 7.00 | Nc1c(Cl)cc(Nc2ncnc3cnc(N[C@H]4CC[C@H](C(=O)N5CCCC5)CC4)nc23)cc1Cl [1(18), 4-[(4-Amino-3,5-dichlorophenyl)amino]-6-[trans-4-(pyrrolidinocarbonyl)cyclohexylamino]pyrimido[5,4-d]pyrimidine] | 8.52 | < 6.00
6.00 to 7.00 | Fc1ccc(Nc2ncnc3cnc(N4CCC(C5CCNCC5)CC4)nc23)cc1Cl [1(19), 4-[(3-Chloro-4-fluorophenyl)amino]-6-[4-(4-piperidinyl)-1-piperidinyl]pyrimido[5,4-d]pyrimidine] | 7.08 | < 6.00
 | OCc1cccc(Nc2ncnc3cnc(N[C@H]4CC[C@H](O)CC4)nc23)c1 [1(47), 4-[(3-Hydroxymethylphenyl)amino]-6-[trans-4-hydroxycyclohexylamino]pyrimido[5,4-d]pyrimidine] | < 7.00 | < 6.00
 | OC1CCN(c2ncc3ncnc(Nc4ccc(F)c(Cl)c4)c3n2)CC1 [1(48), 4-[(3-Chloro-4-fluorophenyl)amino]-6-[4-hydroxy-1-piperidinyl]pyrimido[5,4-d]pyrimidine] | 7.44 | < 6.00
 | Fc1ccc(Nc2ncnc3cnc(N4CCCCC4)nc23)cc1Cl [1(49), 4-[(3-chloro-4-fluorohenyl)amino]-6-[1-piperidinyl]pyrimido[5,4-d]pyrimidine] | < 6.00 | < 6.00
 | N#CN1CCC(Nc2ncc3ncnc(Nc4ccc(F)c(Cl)c4)c3n2)CC1 [1(50), 4-[(3-Chloro-4-fluorophenyl)amino]-6-[(1-cyano-4-piperidinyl)amino]pyrimido[5,4-d]pyrimidine] | 8.52 | < 6.00
 | CN1CCC(CNc2ncc3ncnc(Nc4ccc(F)c(Cl)c4)c3n2)CC1 [1(51), 4-[(3-Chloro-4-fluorophenyl)amino]-6-[(1-methyl-4-piperidinyl)methylamino]pyrimido[5,4-d]pyrimidine] | 8.05 | < 6.00
 | O=C(N1CCOCC1)N1CCN(CCNc2ncc3ncnc(Nc4ccc(F)c(Cl)c4)c3n2)CC1 [1(52), 4-[(3-Chloro-4-fluorophenyl)amino]-6-[2-(4-(morpholinocarbonyl)-1-piperazinyl)ethylamino]pyrimido[5,4-d]pyrimidine] | 8.00 | < 6.00
 | Nc1ncc2ncnc(Nc3ccc(F)c(Cl)c3)c2n1 [1(53), 4-[(3-Chloro-4-fluorophenyl)amino]-6-aminopyrimido-[5,4-d]pyrimidine] | < 7.00 | < 6.00
 | NCCCCCNc1ncc2ncnc(Nc3ccc(F)c(Cl)c3)c2n1 [1(54), 4-[(3-Chloro-4-fluorophenyl)amino]-6-[5-aminopentylamino]pyrimido[5,4-d]pyrimidine] | 8.00 | < 6.00
 | Fc1ccc(Nc2ncnc3cnc(N4CCCCCC4)nc23)cc1Cl [1(55), 4-[(3-Chloro-4-fluorophenyl)amino]-6-[1-azacycloheptyl]pyrimido[5,4-d]pyrimidine] | 7.40 | < 6.00
 | NC1CCCN(c2ncc3ncnc(Nc4ccc(F)c(Cl)c4)c3n2)CC1 (centres unmarked) [1(56), 4-[(3-Chloro-4-fluorophenyl)amino]-6-[4-amino-1-azacycloheptyl]pyrimido[5,4-d]pyrimidine] | 7.40 | < 6.00
 | CC(C)(C)OC(=O)N1CCCC(Nc2ncc3ncnc(Nc4ccc(F)c(Cl)c4)c3n2)CC1 (centres unmarked) [1(57), 4-[(3-chloro-4-fluorophenyl)amino]-6-[1-tert-butyloxy-carbonyl-4-(azacycloheptyl)amino]pyrimido[5,4-d]pyrimidine] | 7.06 | < 5.00
 | Fc1ccc(Nc2ncnc3cnc(NC4CCCNCC4)nc23)cc1Cl (centres unmarked) [1(58), 4-[(3-Chloro-4-fluorophenyl)amino]-6-[4-(azacycloheptyl)amino]pyrimido[5,4-d]pyrimidine] | 8.40 | < 6.00
 | NC[C@H]1CC[C@H](Nc2ncc3ncnc(Nc4ccc(F)c(Cl)c4)c3n2)CC1 [1(59)] | 9.00 | < 6.00
 | O=C(N[C@H]1CC[C@H](CNc2ncc3ncnc(Nc4ccc(F)c(Cl)c4)c3n2)CC1)OCc1ccccc1 [1(60), 4-[(3-Chloro-4-fluorophenyl)amino]-6-[trans-4-(benzyloxycarbonylamino)cyclohexylmethylamino]pyrimido[5,4-d]pyrimidine] | 6.92 | < 5.00
 | NCC1CCCN(c2ncc3ncnc(Nc4ccc(F)c(Cl)c4)c3n2)C1 (centres unmarked) [1(61), 4-[(3-Chloro-4-fluorophenyl)amino]-6-[3-aminomethyl-1-piperidinyl]pyrimido[5,4-d]pyrimidine] | 7.30 | < 6.00
 | Nc1cc(Cl)c(Nc2ncnc3cnc(N[C@H]4CC[C@H](O)CC4)nc23)cc1Cl [1(62), 4-[(4-Amino-2,5-dichlorophenyl)amino]-6-[trans-4-hydroxycyclohexylamino]pyrimido[5,4-d]pyrimidine] | 8.40 | < 5.00
 | O[C@H]1CC[C@H](Nc2ncc3ncnc(Nc4ccc(-c5ccccc5)cc4)c3n2)CC1 [1(63), 4-[4-Biphenylylamino]-6-[trans-4-hydroxycyclohexylamino]pyrimido[5,4-d]pyrimidine] | < 5.00 | < 5.00
 | O[C@H]1CC[C@H](Nc2ncc3ncnc(Nc4cccc(Oc5ccccc5)c4)c3n2)CC1 [1(64)] | 6.82 | < 5.00
 | COC(=O)[C@H]1CC[C@H](Nc2ncc3ncnc(Nc4ccc(F)c(Cl)c4)c3n2)CC1 [Example 1, 4-[(3-Chloro-4-fluorophenyl)amino]-6-[(trans-4-methoxycarbonylcyclohexyl)amino]pyrimido[5,4-d]pyrimidine] | 6.70 | < 5.00

Compound | pIC50 [2] | pIC50 [1] | pIC50 (F/L-HERc cells)
Fc1ccc(Nc2ncnc3cnc(NC4CN5CCC4CC5)nc23)cc1Cl (racemic) [1(4), (3'RS)-4-[(3-Chloro-4-fluorophenyl)amino]-6-[(3'-quinuclidinyl)amino]pyrimido[5,4-d]pyrimidine] | 6.00 to 7.00 | 7.82 | < 5.00
